We go through 3 compounds from patent US8030547B2, “Gene coding for acetolactate synthase” (priority 2002, dated 2011).

Holding throughout (format): biochemical, rice (Oryza sativa var. Kinmaze)
Assay [1] deals with T1, GST fusion P171H mutant ALS protein (Oryza sativa subsp. japonica, UniProt Q6K2E8, P171H).
T1 construct: an expression vector having the full-length wild type ALS cDNA incorporated into the Eco RI site of pGEX-2T; made in house; host or cells: E. coli JM109, pGEX-2T(ALS P171H mutant); crude supernatant
T1 sequence (Q6K2E8 44-644 P171H): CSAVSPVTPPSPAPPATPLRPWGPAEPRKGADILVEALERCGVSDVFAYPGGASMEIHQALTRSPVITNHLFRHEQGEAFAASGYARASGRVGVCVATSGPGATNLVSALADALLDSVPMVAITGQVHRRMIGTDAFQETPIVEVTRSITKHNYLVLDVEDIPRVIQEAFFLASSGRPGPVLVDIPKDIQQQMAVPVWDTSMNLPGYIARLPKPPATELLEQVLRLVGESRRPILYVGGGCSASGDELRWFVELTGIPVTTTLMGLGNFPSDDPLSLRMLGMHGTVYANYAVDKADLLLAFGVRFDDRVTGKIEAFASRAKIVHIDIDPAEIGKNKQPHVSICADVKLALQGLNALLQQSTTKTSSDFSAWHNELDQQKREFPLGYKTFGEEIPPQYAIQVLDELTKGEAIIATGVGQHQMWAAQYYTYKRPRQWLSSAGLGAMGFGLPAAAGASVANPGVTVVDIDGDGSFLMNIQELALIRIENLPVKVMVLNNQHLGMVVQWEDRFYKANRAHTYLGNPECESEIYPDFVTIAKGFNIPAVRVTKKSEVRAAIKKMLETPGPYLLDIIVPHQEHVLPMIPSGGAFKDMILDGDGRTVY
Briefly: Herbicide sensitivity of ALS protein expressed in E. coli (crude enzyme solution), P171H. Particulars: for RS ratio: P171H mutant vs wild type. How it is done:
(§1) ALS activity resulting from the mutant ALS protein contained in the eluted fractions apportioned into each test tube for apportioning was measured as follows. A reaction solution to be used in a measurement reaction was prepared by mixing an eluted fraction to be measured with a solution comprising 20 mM sodium pyruvate, 0.5 mM TPP, 0.5 mM MgCl2, 10 μM FAD and 20 mM potassium phosphate buffer (pH 7.5). One ml of this reaction solution was used. After the eluted fraction to be measured was added, the measurement reaction was performed at 30° C. for 40 to 60 minutes. Then, the reaction was stopped by addition of 0.1 ml of 6N sulfuric acid (or 0.25 N sodium hydroxide).
(§2) After the reaction was stopped, the reaction solution was incubated at 60° C. for 10 minutes, thereby converting acetolactate contained in the reaction solution to acetoin.
(§3) Then, to quantify acetoin contained in the reaction solution, 1 ml of 0.5% (w/v) creatine and 1 ml of 5% (w/v) α-naphthol dissolved in 2.5 N sodium hydroxide was added to the reaction solution, followed by incubation at 37° C. for 10 minutes. Acetoin was then quantified by color comparison of the absorbance (at 525 nm) of the reaction solution, thereby evaluating ALS activity. In addition, since the reaction solution contained a small amount of sodium pyruvate, reaction time 0 was used as control.
(§4) E. coli transformed with pGEX-2T(ALS-wild) constructed in Example 3(5), E. coli transformed with pGEX-2T(ALS-W548L mutant) constructed in Example 5, E. coli transformed with pGEX-2T(ALS-S627I mutant) constructed in Example 5, E. coli transformed with pGEX-2T(ALS P171H mutant) constructed in Example 6, E. coli transformed with pGEX-2T(ALS R172S mutant) constructed in Example 6, E. coli transformed with pGEX-2T(ALS P171H, R172S mutant) constructed in Example 7, E. coli transformed with pGEX-2T(ALS-P171H, W548L mutant) constructed in Example 8, E. coli transformed with pGEX-2T(ALS-P171H, S627I mutant) constructed in Example 8, and E. coli transformed with pGEX-2T(ALS-P171H, W548L, S627I mutant) constructed in Example 9 were respectively shake-cultured (pre-culture) at 27° C. in 2 ml of LB liquid medium containing ampicillin. These types of E. coli were respectively cultured in 250 ml of LB liquid medium containing ampicillin using 1 ml of the pre-culture solution. After culturing overnight, 1 mM IPTG was added to the media, and then culturing was performed for a further 3 to 4 hours, so that the expression of GST fusion protein was induced. In addition, the cells were stored at −80° C. after washing.
(§5) Preparation and purification of ALS from E. coli were performed by the following method. First, the pellet of the transformant E. coli stored at −80° C. was suspended in ALS extraction buffer (potassium phosphate buffer (pH 7.5) containing 30% glycerol and 0.5 mM MgCl2). Specifically, 2.5 ml of the buffer was added to the pellet obtained from 50 ml of the culture solution. The suspension was subjected to ultrasonication (Heat Systems-Ultrasonics, Sonicator W-225R, micro chip, output control 8, interval of approximately 1 second, twice (40 seconds each)), and subjected to centrifugation at 15000×g, 4° C. for 20 minutes, thereby obtaining the supernatant as a crude enzyme solution.
(§6) Herbicide sensitivity of the wild type ALS protein and that of mutant ALS protein were examined using the 9 types of crude enzyme solutions obtained in Example 10. Herbicide sensitivity test was performed according to procedures almost the same as those in Example 2. However, in this example, reaction temperature was 37° C., reaction time was 30 minutes, and 10 mM valine was added to the reaction solution to inhibit ALS activity derived from E. coli. Further, three types of herbicides, bispyribac-sodium, pyrithiobac-sodium, and pyriminobac, were used as PC herbicides; chlorsulfuron was used as a sulfonylurea herbicide; and imazaquin was used as an imidazolinon herbicide. […]

Assay [2] deals with T2, GST fusion S627I mutant ALS protein (Oryza sativa subsp. japonica, UniProt Q6K2E8, S627I).
T2 construct: an expression vector having the full-length wild type ALS cDNA incorporated into the Eco RI site of pGEX-2T; made in house; host or cells: E. coli JM109, pGEX 2T(ALS-S627I mutant); crude supernatant
T2 sequence (Q6K2E8 44-644 S627I): as the sequence (Q6K2E8 44-644 P171H) above, with H128P, S584I counted along it
In words: Herbicide sensitivity of ALS protein expressed in E. coli (crude enzyme solution), S627I. Particulars: for RS ratio: S627I mutant vs wild type. As to the method:
as §1, §2, §3, §4, §5, §6

The target of assay [3] is T3, GST fusion P171H/W548L mutant ALS protein (Oryza sativa subsp. japonica, UniProt Q6K2E8, P171H/W548L).
T3 construct: made in house; host or cells: E. coli, pGEX-2T(ALS-P171H, W548L mutant); crude supernatant
T3 sequence (Q6K2E8 44-644 P171H/W548L): as the sequence (Q6K2E8 44-644 P171H) above, with W505L counted along it
In words: Herbicide sensitivity of ALS protein expressed in E. coli (crude enzyme solution), P171H/W548L. Particulars: for RS ratio/ predicted RS ratio / Predicted RS ratio: P171H/W548L mutant; for RS ratio: P171H/W548L mutant vs wild type; for Predicted RS ratio: product of RS ratios of the 1-point mutants; for inhibition at 100 µM: read-out: inhibition % at the highest concentration among the concentrations tested, P171H/W548L mutant, in 100 μM. As to the method:
as §1, §2, §3, §4, §5, §6

One may read the IC50 as the point on the concentration scale where inhibition reaches its midpoint. Higher therefore signals weaker potency in that assay. For the compound `COc1cc(OC)nc(Oc2cccc(Oc3nc(OC)cc(OC)n3)c2C(=O)O)n1` [bispyribac-sodium], in assay [1], the IC50 stood at 0.055 µM and the RS ratio is reported as 8.7. For the same compound, in assay [2], inhibition was half-maximal at 0.26 µM (IC50) and the RS ratio is 41. In assay [3], the “RS ratio/ predicted RS ratio” value is >3.3, the RS ratio was >15000, the “Predicted RS ratio” value is 4500 and the inhibition at 100 µM turned out to be 5%.

As for `COc1nc(C)nc(NC(=O)NS(=O)(=O)c2ccccc2Cl)n1` [chlorsulfuron], in assay [1], the IC50 is 1.1 µM and the RS ratio is 85. Moreover, in assay [2], the IC50 came out at 0.031 µM and the RS ratio stood at 2.4. For the same compound, in assay [3], the “RS ratio/ predicted RS ratio” value is >0.18, the RS ratio is >7700, the “Predicted RS ratio” value was 65000 and the inhibition at 100 µM was 16%.

For the compound `CC(C)C1(C)N=C(c2nc3ccccc3cc2C(=O)O)NC1=O` (stereo not shown) [imazaquin], in assay [1], the IC50 came out at 3.4 µM and the RS ratio was found to be 1.5. In assay [2], this compound came in with an IC50 of 15 µM. In addition, in assay [3], the RS ratio is >45, the “Predicted RS ratio” value is on record as >68 and the inhibition at 100 µM came to 13%.
